Values joined by “and” are separate entries in the source; they are usually repeats but may differ in a detail not shown here. Equal entries are not always repeated.
Key:
Type in all cases: in vivo
[1] = test system: Tea plants (Japanese green tea, Yabukita); test: Polyphenol content of tea leaves after pre-harvest spraying; design: Total catechin (g): unit not given here; details: autumn; for % compared to untreated (total catechin) / Total catechin (%) when compared to untreated: untreated = 100%
Description: Tea plants (Japanese green tea, Yabukita) were grown in 5 m^2 plots, and the leaves were harvested. The harvested leaves were tested for polyphenols. Fourteen days before harvest, the tea plants were sprayed with a commercial formulation of emamectin benzoate (Affirm™), difenoconazole (Score™), methidathion (Supracid™), azoxystrobin (Amistar™) or a mixture of lufenuron and thiamethoxam. An otherwise identical set of tea plants were left untreated.
The experiment was repeated using either azoxystrobin or trifloxystrobin.
Both trials detailed above were carried out in the autumn. […] It is proposed that, when photosynthesis is active (e.g. in the summer season), addition of azoxystrobin may not enhance photosynthesis further and thus may not be able to further raise catechin levels.

[2] = test system: Tomato plants (Variety: Sunroad); test: Lycopene content of harvested tomatoes after azoxystrobin spraying; details: for lycopene content, single replicate: stored at room temperature, listed as Az-treated; for lycopene content, single replicate / lycopene content, mean of 3 replicates: conventional fungicide treatment plus azoxystrobin
Description: Tomato plants (Variety: Sunroad) were grown and the tomatoes were harvested after spraying with a conventional fungicide treatment and with the conventional treatment plus azoxystrobin. The harvested tomatoes were stored at room temperature and tested for lycopene concentration 2, 5, 9 and 12 days after sample harvesting (three tomatoes were chosen at random from each box on each day of testing).
When this study was repeated using similar conditions but on a smaller scale, a marked rise in lycopene content was not observed (control: 11.7 mg lycopene/100 g tomato; azoxystrobin treated: 10.7 mg lycopene/100 g tomato).

[3] = test system: Carrot plants; test: β-carotene content of harvested carrots after azoxystrobin spraying; details: conventional treatment plus Amistar Opti (azoxystrobin and chlorothalonil)
Description: Carrot plants were grown and the carrots were harvested after spraying twice with a conventional fungicide treatment (chlorothalonil, copper hydroxide, iminoctazine polyoxin and tolclofos-methyl) and with the conventional treatment plus Amistar Opti™ (azoxystrobin and chlorothalonil). Some of the harvested carrots were analysed immediately on harvest for β-carotene while others were stored for a week after harvest before analysis. […] It seems therefore that azoxystrobin has a clear effect on β-carotene levels in mature carrots.

[4] = test system: soybean; test: Isoflavone levels in soybean after azoxystrobin treatment
Description: (§1) Similar work was carried out to look at isoflavone levels in soybean and anthocyanin levels in eggplant and strawberry on treatment of the plants with azoxystrobin. […] In addition, it also raised anthocyanin levels in strawberry by 50% (control: 200-220 mg anthocyanin/100 g strawberry; azoxystrobin treated: 210-420 mg anthocyanin/100 g strawberry), although it seemed to have no effect on anthocyanin levels in egg plant.

[5] = test system: strawberry; test: Anthocyanin levels in strawberry after azoxystrobin treatment
Description: as §1

[6] = test system: eggplant; test: Anthocyanin levels in eggplant after azoxystrobin treatment; details: egg plant
Description: as §1

[7] = Table 1 trial, commercial formulation sprayed 14 days before harvest
[8] = 12 days after sample harvesting

For CON=C(C(=O)OC)c1ccccc1CON=C(C)c1cccc(C(F)(F)F)c1 [Trifloxystrobin, trifloxystrobin], the Epicatechin ([1]; Table 2 repeat trial) was 23.8 mg polyphenol/g tea leaves, the Epicatechin gallate ([1]; Table 2 repeat trial) was 32.4 mg polyphenol/g tea leaves and the Epigalocatechin ([1]; Table 2 repeat trial) was 190.1 mg polyphenol/g tea leaves. For the same molecule, the Epigalocatechin gallate ([1]; Table 2 repeat trial) was 163.0 mg polyphenol/g tea leaves, the Total catechin ([1]; Table 2 repeat trial) was 409.3 mg polyphenol/g tea leaves and the “% compared to untreated (total catechin)” value ([1]; Table 2 repeat trial) was 110%.
For emamectin benzoate, the Epicatechin [1, 7] was 960 mg polyphenol/100 g tea leaves, the Epicatechin gallate [1, 7] was 890 mg polyphenol/100 g tea leaves and the Epigalocatechin [1, 7] was 4600 mg polyphenol/100 g tea leaves. For the same molecule, the Epigalocatechin gallate [1, 7] was 5600 mg polyphenol/100 g tea leaves, the “Total catechin (g)” value ([1]; Table 1 trial, sprayed 14 days before harvest, table title: mg polyphenol/100 g tea leaves) was 12050 and the “Total catechin (%) when compared to untreated” value (from here on “Total catechin (%) when”) ([1]; Table 1 trial) was 106%.
With CC1COC(Cn2cncn2)(c2ccc(Oc3ccc(Cl)cc3)cc2Cl)O1 (stereo not shown) [DFZ, difenoconazole] the Epicatechin [1, 7] was 950 mg polyphenol/100 g tea leaves, the Epicatechin gallate [1, 7] was 970 mg polyphenol/100 g tea leaves and the Epigalocatechin [1, 7] was 4300 mg polyphenol/100 g tea leaves. For the same molecule, the Epigalocatechin gallate [1, 7] was 5900 mg polyphenol/100 g tea leaves and the “Total catechin (%) when” value ([1]; Table 1 trial) was 106%.
CO/C=C(/C(=O)OC)c1ccccc1Oc1cc(Oc2ccccc2C#N)ncn1 [Azoxystrobin, azoxystrobin] was tested, and the Epicatechin [1, 7] was 930 mg polyphenol/100 g tea leaves, the Epicatechin gallate [1, 7] was 960 mg polyphenol/100 g tea leaves and the Epigalocatechin [1, 7] was 4800 mg polyphenol/100 g tea leaves. For the same molecule, the Epigalocatechin gallate [1, 7] was 6200 mg polyphenol/100 g tea leaves, the “Total catechin (%) when” value ([1]; Table 1 trial) was 113% and the Epicatechin ([1]; Table 2 repeat trial) was 24.5 mg polyphenol/g tea leaves. For the same molecule, the Epicatechin gallate ([1]; Table 2 repeat trial) was 31.1 mg polyphenol/g tea leaves, the Epigalocatechin ([1]; Table 2 repeat trial) was 178.8 mg polyphenol/g tea leaves and the Epigalocatechin gallate ([1]; Table 2 repeat trial) was 160.6 mg polyphenol/g tea leaves. For the same molecule, the Total catechin ([1]; Table 2 repeat trial) was 395.0 mg polyphenol/g tea leaves, the “% compared to untreated (total catechin)” value ([1]; Table 2 repeat trial) was 107% and the “lycopene content, single replicate” value ([2]; 2 days after sample harvesting) was 5.69 mg lycopene/100 g tomato and 5.67 mg lycopene/100 g tomato and 5.14 mg lycopene/100 g tomato. For the same molecule, the “lycopene content, mean of 3 replicates” value ([2]; 2 days after sample harvesting) was 5.50 mg lycopene/100 g tomato, the “lycopene content, single replicate” value ([2]; 5 days after sample harvesting) was 8.36 mg lycopene/100 g tomato and 8.87 mg lycopene/100 g tomato and 6.01 mg lycopene/100 g tomato and the “lycopene content, mean of 3 replicates” value ([2]; 5 days after sample harvesting) was 7.75 mg lycopene/100 g tomato. The “lycopene content, single replicate” value ([2]; 9 days after sample harvesting) was 9.78 mg lycopene/100 g tomato and 9.14 mg lycopene/100 g tomato and 8.32 mg lycopene/100 g tomato, the “lycopene content, mean of 3 replicates” value ([2]; 9 days after sample harvesting) was 9.08 mg lycopene/100 g tomato and the “lycopene content, single replicate” value [2, 8] was 8.27 mg lycopene/100 g tomato and 8.88 mg lycopene/100 g tomato and 9.24 mg lycopene/100 g tomato. The “lycopene content, mean of 3 replicates” value [2, 8] was 8.79 mg lycopene/100 g tomato, the lycopene content ([2]; repeat study, similar conditions, smaller scale, control 11.7) was 10.7 mg lycopene/100 g tomato and the “β-carotene levels compared with conventional fungicide regime” value ([3]; carrots analysed immediately on harvest, sprayed twice) was “did not show an increase”. The β-carotene content ([3]; carrots stored for one week after harvest, conventional treatment 6.59) was 7.48 mg β-carotene/100 g carrot, the isoflavone content ([4]; control 120) was 130 mg isoflavone/100 g soybean and the “increase of isoflavone levels” value ([4]; soybean, versus control) was 8%. The anthocyanin content ([5]; control 200-220) was 210-420 mg anthocyanin/100 g strawberry, the “rise of anthocyanin levels” value ([5]; strawberry, versus control) was 50% and the “effect on anthocyanin levels” value [6] was “no effect”.
For COc1nn(CSP(=S)(OC)OC)c(=O)s1 [MTH, methidathion], the Epicatechin [1, 7] was 1100 mg polyphenol/100 g tea leaves, the Epicatechin gallate [1, 7] was 1100 mg polyphenol/100 g tea leaves and the Epigalocatechin [1, 7] was 4500 mg polyphenol/100 g tea leaves. The Epigalocatechin gallate [1, 7] was 5700 mg polyphenol/100 g tea leaves and the “Total catechin (%) when” value ([1]; Table 1 trial) was 109%.

— patent US20090298859A1, “METHOD FOR TREATING PLANTS” (SYNGENTA CROP PROTECTION, INC., priority 2006, published 2009)
